{"source": "patent US11826317B2", "about": "“Combination therapy with notch and PD-1 or PD-L1 inhibitors” (Eli Lilly and Company, priority 2016, dated 2023)", "key": {"CT26 cells": {"test_system": "CT26 cells", "test": "CT26 colorectal tumor growth in BALB/C mice (in-vivo study)", "settings": "CT26 s.c. in BALB/C mice", "procedure": "For in-vivo studies 1×10^6 CT26 cells (ATCC® CRL2639™) a colorectal cancer cell line, in 0.2 mL Hank's Balanced Salt Solution (HBSS) is implanted by subcutaneous injection in the hind leg of 6-8 weeks of age BALB/C female mice (Harlan Laboratories). Mice are fed ad libitum on normal chow. Treatment is initiated on day 6 of tumor implantation with oral administration (gavage) of Compound A in 1% Sodium carboxymethyl cellulose (Na-CMC) in 0.25% Tween® 80, or intraperitoneal injection of mouse anti PD-L1 antibody (10F.9G2, BioXcell Catalogue #: BE0101) in phosphate buffered saline (PBS) or intraperitoneal injection of mouse anti PD-1 (CD279) antibody (Clone: RMP1-14, BioXCell #: BP0146-R) in PBS or their respective vehicle in 0.2 mL volume. Compound A is administered at 8 mg/kg on a Monday, Wednesday and Friday schedule for 2 weeks and 10F.9G2 and RMP1-14 are administered at 250 μg/dose/animal on Monday and Thursday schedule for 2 weeks.\nTumor growth and body weight are monitored over time to evaluate efficacy and signs of toxicity. Bidimensional measurements of tumors are performed twice a week and tumor volumes are calculated based on the following formula: (Tumor Volume)=[(L)×(W2)×(Π/6)] where L is mid-axis length and W is mid-axis width. Tumor volume data are transformed to a log scale to equalize variance across time and treatment groups. The log volume data are analyzed with a two-way repeated measures analysis of variance by time and treatment using the MIXED™ procedures in SAS™ software (version 8.2). The correlation model for the repeated measures is spatial power. Test Groups are: • 1: 1% CMC/0.25% Tween® 80/0.05% Antifoam, Monday-Wednesday-Friday ×2, PO/PBS Monday-Thursday ×2, IP • 2: Compound A, 8 mg/kg, Monday-Wednesday-Friday ×2, PO • 3: Compound B (PD-L1), 250 μg/dose, Monday-Thursday ×2, IP • 4: Compound C (PD-1), 250 μg/dose, Monday-Thursday ×2, IP • 5: Compound A, 8 mg/kg, Monday-Wednesday-Friday ×2, PO/Compound B (PD-L1), 250 μg/dose, Monday-Thursday ×2, IP • 6: Compound A, 8 mg/kg, Monday-Wednesday-Friday ×2, PO/Compound C (PD-1), 250 μg/dose, Monday-Thursday ×2, IP\nTumor growth and body weight are monitored over time to evaluate efficacy and signs of toxicity. Bidimensional measurements of tumors are performed twice a week and tumor volumes are calculated based on the following formula: (Tumor Volume)=[(L)×(W2)×(Π/6)] where L is mid-axis length and W is mid-axis width. Tumor volume data are transformed to a log scale to equalize variance across time and treatment groups. The log volume data are analyzed with a two-way repeated measures analysis of variance by time and treatment using the MIXED™ procedures in SAS™ software (version 8.2). The correlation model for the repeated measures is spatial power. Treated groups are compared to the control group at each time point. The MIXED™ procedure is also used separately for each treatment group to calculate adjusted means and standard errors at each time point. Both analyses account for the autocorrelation within each animal and the loss of data that occurs when animals with large tumors are removed from the study early. […] Antitumor activity is expressed as a tumor volume percentage for treatment versus control (% T/C) and is calculated by comparing tumor volume in the treatment group with vehicle treatment group. Percentage T/C and statistical significance value (p value) for the treatment groups is measured essentially as described above and summarized in Table 2. […]"}, "CT-26 tumors [1]": {"test_system": "CT-26 tumors", "test": "Flow-cytometry of intra-tumoral immune cell populations in excised CT-26 tumors", "format": "in vivo, mice", "settings": "tumors excised day 20, 1 h after last dose of Compound A", "procedure": "(§1) For mechanism analysis CT-26 tumors are excised on day 20, 1 h following the last dose of Compound A. A small piece of approximately 30 mg is cut and stored in RNALater for gene expression analysis. The remainder of the tumor is processed for the flow-cytometry analysis.\nTumors are weighed and then homogenized in 5 ml 4° C. complete media (CM; RPMI-1640/10% fetal bovine serum (FBS)) through 100 μm strainers to produce single-cell suspensions. Cells are centrifuged for 5 minutes at 466×g, 4° C.; the pellets are resuspended in fresh CM (0.5-3 ml, depending on pellet volume), and cells are counted using a Vi-Cell XR (Beckman Coulter). An equal number of total cells per tumor (10×10^6) are transferred to 96-well V-bottom microplates (Fisher Scientific). Cells are centrifuged (700×g, 3 min., 4° C.) and resuspended in 100 μl 1 μg/ml Fc block in CM (anti-CD16/32 (clone 2.4G2); Tonbo Biosciences) for 30 minutes on ice. Cells are centrifuged (700×g, 3 minutes, 4° C.) and resuspended in 100 μl of one of several fluochrome-conjugated surface marker antibody cocktails [anti-CD3 (clone 145-2C11), -Ly-6G (clone 1A8), -CD11c (clone HL3), -CD45 (clone 30-F11) (BD Biosciences), anti-CD8 (clone 53-6.7) (Biolegend), -CD11b (clone M1/70), -CD3 (clone 145-2C11), -F4/80 (clone BM8), -CD4 (clone RM4-5), (eBioscience)] containing a fixable viability dye (eBioscience) and incubated for 30 minutes on ice covered from light. Cells are twice washed with 200 μl CM and centrifuged (700×g, 3 min., 4° C.). Following the second wash, cells are fixed, permeabilized, and intracellularly stained for Ki67 (clone SolA15) (eBioscience) using the Foxp3/Transcription Factor Staining Buffer Set (eBioscience), following the manufacturer's instructions with noted modifications. Briefly, cells are fixed in 100 μl/well for 30 min., followed by 100 μl/well permeabilization buffer with or without intracellular stain (depending on the staining panel used) for 30 min. Cells are twice washed with 200 μl 1× permeabilization buffer and centrifuged (700×g, 3 min., 4° C.), followed by resuspension in PBS with 2% FBS. 1×10^6 events, excluding debris, are captured for each sample using a 10-channel LSR II cytometer (BD Biosciences) and analyzed using FlowJo V.10.0.8 software. Data is represented as percent of tumor cells, with noted exceptions where represented as percent of parent population. Post-hoc t-test following ANOVA is used for statistical analysis between vehicle and treatment groups."}, "CT-26 tumors [2]": {"test_system": "CT-26 tumors", "test": "Gene expression analysis (Taqman) of excised CT-26 tumors", "format": "in vivo, mice", "settings": "all genes of Table 4; single-agent groups versus vehicle; result in words", "procedure": "as §1\nFor RNA isolation from the tumor, approximately 30 mg tissue is cut. RNA is extracted by RNeasy Protocol (version January 2002) using RNeasy 96-well Column Plates (Qiagen, Valencia, Calif.; Cat #74182) and QiaVac 96 vacuum manifold at 15 psi vacuum. […] The total RNA concentration is estimated using Nanodrop ND-1000 spectrophotometer by absorbance at 260 nm (Thermo Scietific). […]\nFor Taqman procedure, 100 μL of cDNA is diluted with 200 μL RNase/DNase-free water in 96-Well Clear Optical Reaction Plate (Applied Biosystems, Cat #4306737) and transferred to 2 mL RNase/DNase-free tubes (Ambion, Cat #AM12475). […] Samples are dispensed with Tecan Automated Pipetting Workstation (Tecan US Inc., Durham, N.C.; Model: Freedom Evo-100 or Evo-150), and plates are read in ABI Prism 9700HT SDS plate reader with following protocol settings: 50° C. for 2 minutes, 95° C. for 10 minutes, and 40 cycles at 95° C. for 15 seconds and 60° C. for 1 minute. […] All calculations are done in Microsoft Excel spreadsheet template, and % inhibition is calculated from control values. […]"}}, "data": [{"smiles": "C[C@H](NC(=O)CCC(F)(F)F)C(=O)N[C@@H]1C(=O)N(CCO)c2ncccc2-c2ccccc21", "note": "[Compound A, 4,4,4-trifluoro-N-[(1S)-2-[[(7S)-5-(2-hydroxyethyl)-6-oxo-7H-pyrido[2,3-d][3]benzazepin-7-yl]amino]-1-methyl-2-oxo-ethyl]butanamide]", "values": [{"measurement": "Tumor volume: Geometric Mean", "setting": "CT26 cells; study day 8", "value": 47.96, "unit": "mm^3"}, {"measurement": "Tumor volume: Geometric Mean", "setting": "CT26 cells; study day 10", "value": 88.80, "unit": "mm^3"}, {"measurement": "Tumor volume: Geometric Mean", "setting": "CT26 cells; study day 14", "value": 376.50, "unit": "mm^3"}, {"measurement": "Tumor volume: Geometric Mean", "setting": "CT26 cells; study day 17", "value": 751.13, "unit": "mm^3"}, {"measurement": "Tumor volume: Geometric Mean", "setting": "CT26 cells; study day 20", "value": 1227.40, "unit": "mm^3"}, {"measurement": "CD4+/Ki67+ (% of CD4+) Mean % ± SEM", "setting": "CT-26 tumors [1]", "value": "7.6 ± 0.5", "unit": "%"}, {"measurement": "CD8+/Ki67+ (% of CD8+) Mean % ± SEM", "setting": "CT-26 tumors [1]", "value": "23.1 ± 2.0", "unit": "%"}, {"measurement": "CD11b + F4/80+ (% of Tumor) Mean % ± SEM", "setting": "CT-26 tumors [1]", "value": "0.89 ± 0.15", "unit": "%"}, {"measurement": "CD11b + Ly-6G + F4/80− (% of Tumor) Mean % ± SEM", "setting": "CT-26 tumors [1]", "value": "1.12 ± 0.08", "unit": "%"}, {"measurement": "CD11b+ (% of Tumor) Mean % ± SEM", "setting": "CT-26 tumors [1]", "value": "2.9 ± 0.2", "unit": "%"}, {"measurement": "CD11c+ (% of Tumor) Mean % ± SEM", "setting": "CT-26 tumors [1]", "value": "0.42 ± 0.06", "unit": "%"}, {"measurement": "change in the expression of genes examined", "setting": "CT-26 tumors [2]", "value": "No significant change"}]}]}
